Results published in paper PMC10102027, “Helquat dyes targeting G-quadruplexes as a new class of anti-HIV-1 inhibitors” (Scientific Reports, 2023).

What was measured:
[1] = system: G-quadruplexes in the HIV-1 LTR (G4 LTR FRET oligonucleotide); assay: FRET melting assay; type: binding; conditions: 2 μM compound, 0.2 μM oligonucleotide
[2] = system: HIV-1 LTR G-quadruplex template (G4 LTR Stop); assay: Taq polymerase stop assay; type: biochemical; conditions: for Fold change, all regions (A, B and C) together: normalized against control
Procedure: To address specifically the positions in the HIV-1 promoter region that are affected by the binding of G4-stabilizing agents, we performed a Taq polymerase stop assay. The wild-type LTR oligonucleotide was extended at the […] to include a primer-annealing region and used as a template for a single-cycle Taq polymerase reaction. The elongation of the radioactively labelled primer was performed at 45 °C in the presence or absence of the tested compounds and controls.
A Taq polymerase stop assay was carried out as described in a previous study. Briefly, the primer (G4 LTR primer, Supplementary Table S1) was 5′-end labelled with [γ-^32P]ATP using T4 polynucleotide kinase at 37 °C for 30 min. The T4 polynucleotide kinase was then inactivated by incubation at 65 °C for 5 min. The radioactively labelled primer was column-purified and stored at − 20 °C for further use. The labelled primer (1.7 pmol) was annealed to the template (2.1 pmol) in the LiCaco buffer and extended with the Go Taq DNA polymerase (2U/reaction, Promega) at 45 °C for 45 min. Samples were incubated with G-quadruplex-ligands at 45 °C for 45 min before DNA polymerase addition. The reactions were stopped by a denaturing solution (80% formamide, 10% glycerol, 0.025% xylen cyanol, 0.025% bromphenol blue and 10 mM EDTA pH 8); extension products were separated on 15% denaturing gel and visualized by phosphorimaging. The pixel intensity of bands was calculated using 1D gel analysis in ImageQuant TL software version 8.1 (GE HealthCare) after automatic background subtraction by Rolling Ball method.

[3] = 2.5 µM, pixel intensity normalized against negative control

NCCOc1cc(C(=O)Nc2cc(OCCN)c3ccccc3n2)nc(C(=O)Nc2cc(OCCN)c3ccccc3n2)c1 [PDS, pyridostatin, reference compound]
Tm ([1]; 100 mM KCl, mean and standard error, three experiments): 93 ± 13 °C
ΔTm ([1]; average Tm minus average Tm of PBS): 42 °C
Fold change, all regions (A, B and C) together ([2]; 1 μM): 2.0
Fold change, all regions (A, B and C) together ([2]; 2.5 μM): 2.4
Fold change: A (G-patch 6′) [2, 3]: 2.6
Fold change: B (G-patch 6) [2, 3]: 2.7
Fold change: C (G-patch 5) [2, 3]: 1.6
